From the SangsterLogP compilation

Test: method code SF, from DOI: 10.1007/bf00302523

Q: For `COP(=S)(OC)Oc1ccc([N+](=O)[O-])c(C)c1`, which logP is on record?
A: 3.3

Q: With `COP(=O)(OC)Oc1ccc([N+](=O)[O-])c(C(C)C)c1` as the molecule, how does the logP read?
A: 2.57

Q: For `COP(=S)(OC)Oc1cc(C)c([N+](=O)[O-])c(C)c1`, which logP is on record?
A: 3.89

Q: For `COP(=O)(OC)Oc1ccc([N+](=O)[O-])c(Cl)c1`, which logP is on record?
A: 1.83

Q: Which logP does the source give for `COP(=O)(OC)Oc1ccc([N+](=O)[O-])cc1Cl` here?
A: 1.84

Q: Which logP does the source give for `CCc1cc(OP(=S)(OC)OC)ccc1[N+](=O)[O-]` here?
A: 3.74

Q: With `COP(=O)(OC)Oc1ccc([N+](=O)[O-])c(C)c1` as the molecule, how does the logP read?
A: 1.69

Q: Which logP does the source give for `COP(=S)(OC)Oc1ccc([N+](=O)[O-])cc1Cl` here?
A: 3.44

Q: With `COP(=S)(OC)Oc1ccc([N+](=O)[O-])c(C(C)C)c1` as the molecule, how does the logP read?
A: 4.05

Q: For `COP(=O)(OC)Oc1cc(C)c([N+](=O)[O-])c(C)c1`, which logP is on record?
A: 2.26

Q: For `COP(=S)(OC)Oc1ccc([N+](=O)[O-])c(Cl)c1`, which logP is on record?
A: 3.45

Q: With `CCc1cc(OP(=O)(OC)OC)ccc1[N+](=O)[O-]` as the molecule, how does the logP read?
A: 2.19
